The term MIC denotes the smallest concentration in the dilution series that meets the test's criterion for growth inhibition. For orientation: IC50 means the concentration at which inhibition is half-maximal.

The text below walks through data of ChEMBL document CHEMBL3785000, “Antitubercular Lanostane Triterpenes from Cultures of the Basidiomycete Ganoderma sp. BCC 16642” (J Nat Prod, 2016).

The subject of assay [1] is Mycobacterium tuberculosis. The assay is described as follows: Antitubercular activity against Mycobacterium tuberculosis H37Ra infected in African green monkey Vero cells measured daily for 8 days by green fluorescent protein microplate assay. Type of assay: functional. Conditions: 192 h.
A further assay deals with Vero. The assay is described as follows: Cytotoxicity against African green monkey Vero cells by green fluorescent protein microplate assay. The settings on record: Chlorocebus sabaeus. Format: cell-based.

In brackets after ≈: the same amount, converted by molar mass. Some results are limits rather than exact numbers.

Compound `CC(=O)O[C@@H](C/C=C(\C)C(=O)O)[C@@H](C)[C@H]1C[C@H](OC(C)=O)[C@@]2(C)C3=CC[C@H]4C(C)(C)[C@H](OC(C)=O)CC[C@]4(C)C3=CC[C@]12C` [GANODERIC ACID T] yielded an MIC in assay [1] of 6.25 µg/mL (≈ 10.2 µM). This compound had an IC50 with Vero of 28 µM.
On the same counts, the results for `CC(=O)O[C@@H](C/C=C(\C)C(=O)O)[C@@H](C)[C@H]1CC[C@@]2(C)C3=C(CC[C@]12C)[C@@]1(C)CCC(=O)C(C)(C)[C@@H]1C[C@H]3O` are above 50 µg/mL and above 95 µM.
For `CC(=O)O[C@@H](C/C=C(\C)C(=O)O)[C@@H](C)[C@H]1CC[C@@]2(C)C3=CC[C@H]4C(C)(C)C(=O)CC[C@]4(C)C3=CC[C@]12C`, the MIC in assay [1] was above 50 µg/mL. This compound gave an IC50 in the assay on Vero of 35 µM.
The matching figures for `CC(=O)O[C@@H](C/C=C(\C)C(=O)O)[C@@H](C)[C@H]1CC[C@@]2(C)C3=C(CC[C@]12C)[C@@]1(C)CCC(=O)C(C)(C)[C@@H]1CC3`: above 50 µg/mL and 93 µM.
`CC(=O)O[C@@H](C/C=C(\C)C(=O)O)[C@@H](C)[C@H]1C[C@H](OC(C)=O)[C@@]2(C)C3=C(CC[C@]12C)[C@@]1(C)CC[C@H](OC(C)=O)C(C)(C)[C@@H]1C[C@H]3O` had an MIC in assay [1] of 3.13 µg/mL (≈ 4.96 µM). In addition, half-maximal inhibition with Vero (IC50) required 28 µM.
On the same counts, the results for `CC(=O)O[C@H]1CC[C@]2(C)C3=C([C@H](O)C[C@H]2C1(C)C)[C@]1(C)CC[C@H]([C@H](C)CC/C=C(\C)C(=O)O)[C@@]1(C)CC3` are 25 µg/mL (≈ 48.6 µM) and 72 µM.
For `NNC(=O)c1ccncc1` [ISONIAZID], in assay [1], the MIC came out at 0.094 µg/mL (≈ 0.685 µM).
Turning to `CC(=O)O[C@@H](C/C=C(\C)C(=O)O)[C@@H](C)[C@H]1C[C@H](OC(C)=O)[C@@]2(C)C3=CC[C@H]4C(C)(C)[C@@H](OC(C)=O)CC[C@]4(C)C3=CC[C@]12C`, the MIC in assay [1] was 0.781 µg/mL (≈ 1.27 µM). Also, in the assay on Vero, the IC50 is 16 µM.
`C/C(=C\CC[C@@H](C)[C@H]1C[C@H](O)[C@@]2(C)C3=CC[C@H]4C(C)(C)C(=O)CC[C@]4(C)C3=CC[C@]12C)C(=O)O` gave an MIC in assay [1] of 50 µg/mL (≈ 107 µM). The compound also displayed an IC50 with Vero above 107 µM.
On the same counts, the results for `CC(=O)O[C@H]1CC[C@]2(C)C3=C(CC[C@H]2C1(C)C)[C@]1(C)[C@@H](OC(C)=O)C[C@H]([C@H](C)CC/C=C(\C)C(=O)O)[C@@]1(C)CC3` are 0.781 µg/mL (≈ 1.4 µM) and 22 µM.
The matching figures for `CC(=O)O[C@@H](C/C=C(\C)C(=O)O)[C@@H](C)[C@H]1C[C@H](OC(C)=O)[C@@]2(C)C3=C(CC[C@]12C)[C@@]1(C)CCC(=O)C(C)(C)[C@@H]1C[C@H]3O`: above 50 µg/mL and above 85 µM.
Compound `CC(=O)O[C@@H](C/C=C(\C)C(=O)O)[C@@H](C)[C@H]1CC[C@@]2(C)C3=C(CC[C@]12C)[C@@]1(C)CC[C@@H](OC(C)=O)C(C)(C)[C@@H]1CC3=O` returned a minimum inhibitory concentration (MIC) in assay [1] above 50 µg/mL. This compound had an IC50 with Vero of 33 µM.
Compound `CO[C@@H]1C[C@H]2C(C)(C)[C@@H](OC(C)=O)CC[C@]2(C)C2=C1[C@]1(C)CC[C@H]([C@H](C)[C@H](C/C=C(\C)C(=O)O)OC(C)=O)[C@@]1(C)CC2` registered an MIC in assay [1] of 25 µg/mL (≈ 42.6 µM). The IC50 with Vero turned out to be 28 µM.
In assay [1], `CC(=O)O[C@@H](C/C=C(\C)C(=O)O)[C@@H](C)[C@H]1CC[C@@]2(C)C3=CC[C@H]4C(C)(C)[C@@H](OC(C)=O)CC[C@]4(C)C3=CC[C@]12C` registered an MIC of 12.5 µg/mL (≈ 22.5 µM). Also, in the assay on Vero, 32 µM corresponded to half-maximal inhibition (IC50).
Compound `CC(=O)O[C@@H](C/C=C(\C)C(=O)O)[C@@H](C)[C@H]1CC[C@@]2(C)C3=CC[C@H]4C(C)(C)[C@H](O)CC[C@]4(C)C3=CC[C@]12C` returned an MIC in assay [1] of 50 µg/mL (≈ 97.5 µM). Further, the IC50 in the assay on Vero was above 98 µM.
In turn, `CO[C@@H]1C[C@H]2C(C)(C)[C@@H](OC(C)=O)CC[C@]2(C)C2=C1[C@]1(C)[C@@H](OC(C)=O)C[C@H]([C@H](C)[C@H](C/C=C(\C)C(=O)O)OC(C)=O)[C@@]1(C)CC2` displayed an MIC in assay [1] of 12.5 µg/mL (≈ 19.4 µM). This compound gave an IC50 with Vero of 26 µM.
The matching figures for `CC(=O)O[C@@H](C/C=C(\C)C(=O)O)[C@@H](C)[C@H]1C[C@H](OC(C)=O)[C@@]2(C)C3=C(CC[C@]12C)[C@@]1(C)CC[C@H](O)C(C)(C)[C@@H]1CC3`: 50 µg/mL (≈ 87.3 µM) and 30 µM.
`Cc1c2ccncc2c(C)c2c1[nH]c1ccccc12` [ELLIPTECINE]: half-maximal inhibition in the assay with Vero (IC50) was put at 3.3 µM.
Regarding `CC(=O)O[C@@H](C/C=C(\C)C(=O)O)[C@@H](C)[C@H]1CC[C@@]2(C)C3=C(CC[C@]12C)[C@@]1(C)CCC(=O)C(C)(C)[C@@H]1CC3=O`, the MIC in assay [1] was 50 µg/mL (≈ 94.9 µM). In the assay with Vero, this compound gave an IC50 of 91 µM.
Consider `CC(=O)O[C@@H](C/C=C(\C)C(=O)O)[C@@H](C)[C@H]1C[C@H](O)[C@@]2(C)C3=CC[C@H]4C(C)(C)C(=O)CC[C@]4(C)C3=CC[C@]12C`, for which the MIC in assay [1] was above 50 µg/mL. For the same compound, in the assay with Vero, the IC50 was above 95 µM.
The matching figures for `CC(=O)O[C@H]1CC[C@]2(C)C3=C([C@H](O)C[C@H]2C1(C)C)[C@]1(C)[C@@H](OC(C)=O)C[C@H]([C@H](C)CC/C=C(\C)C(=O)O)[C@@]1(C)CC3`: 1.56 µg/mL (≈ 2.72 µM) and 32 µM.
The matching figures for `CO[C@@H]1C[C@H]2C(C)(C)[C@@H](OC(C)=O)CC[C@]2(C)C2=C1[C@]1(C)[C@@H](O)C[C@H]([C@H](C)CC/C=C(\C)C(=O)O)[C@@]1(C)CC2`: 50 µg/mL (≈ 91.8 µM) and 32 µM.
The matching figures for `CC(=O)O[C@@H]1CC[C@]2(C)C3=CC[C@]4(C)[C@@H]([C@H](C)CC/C=C(\C)C(=O)O)CC[C@@]4(C)C3=CC[C@H]2C1(C)C`: above 50 µg/mL and 89 µM.
In assay [1], `CC(=O)O[C@@H](C/C=C(\C)C(=O)O)[C@@H](C)[C@H]1C[C@H](OC(C)=O)[C@@]2(C)C3=C(CC[C@]12C)[C@@]1(C)CCC(=O)C(C)(C)[C@@H]1CC3` registered an MIC above 50 µg/mL. Moreover, the IC50 in the assay on Vero turned out to be 86 µM.
The matching figures for `CC(=O)O[C@@H](C/C=C(\C)C(=O)O)[C@@H](C)[C@H]1C[C@H](OC(C)=O)[C@@]2(C)C3=C(CC[C@]12C)[C@@]1(C)CC[C@H](OC(C)=O)C(C)(C)[C@@H]1CC3`: 3.13 µg/mL (≈ 5.09 µM) and 15 µM.
The matching figures for `CO[C@@H]1C[C@H]2C(C)(C)C(=O)CC[C@]2(C)C2=C1[C@]1(C)CC[C@H]([C@H](C)[C@H](C/C=C(\C)C(=O)O)OC(C)=O)[C@@]1(C)CC2`: 50 µg/mL (≈ 92.1 µM) and 36 µM.
